In US10870647B2, “Imidazopyridine derivative, method for preparing same, and pharmaceutical composition containing same as active ingredient for preventing or treating cancer” (DAEGU-GYEONGBUK MEDICAL INNOVATION FOUNDATION, priority 2016, dated 2020):
Where two headings read alike, the source gives them in different places.

Legend:
Assay in all cases: Kinase selectivity, scanMAX Kinase assay panel (DiscoverX), % control at 1 uM
Format in all cases: binding
[1] = target: T1, scanMAX Kinase assay panel (Homo sapiens, UniProt O75747); settings: PIK3C2G; 1 uM; read-out: Percent Control (%)
T1 construct: purchased DiscoverX
T1 sequence (O75747 1-1486): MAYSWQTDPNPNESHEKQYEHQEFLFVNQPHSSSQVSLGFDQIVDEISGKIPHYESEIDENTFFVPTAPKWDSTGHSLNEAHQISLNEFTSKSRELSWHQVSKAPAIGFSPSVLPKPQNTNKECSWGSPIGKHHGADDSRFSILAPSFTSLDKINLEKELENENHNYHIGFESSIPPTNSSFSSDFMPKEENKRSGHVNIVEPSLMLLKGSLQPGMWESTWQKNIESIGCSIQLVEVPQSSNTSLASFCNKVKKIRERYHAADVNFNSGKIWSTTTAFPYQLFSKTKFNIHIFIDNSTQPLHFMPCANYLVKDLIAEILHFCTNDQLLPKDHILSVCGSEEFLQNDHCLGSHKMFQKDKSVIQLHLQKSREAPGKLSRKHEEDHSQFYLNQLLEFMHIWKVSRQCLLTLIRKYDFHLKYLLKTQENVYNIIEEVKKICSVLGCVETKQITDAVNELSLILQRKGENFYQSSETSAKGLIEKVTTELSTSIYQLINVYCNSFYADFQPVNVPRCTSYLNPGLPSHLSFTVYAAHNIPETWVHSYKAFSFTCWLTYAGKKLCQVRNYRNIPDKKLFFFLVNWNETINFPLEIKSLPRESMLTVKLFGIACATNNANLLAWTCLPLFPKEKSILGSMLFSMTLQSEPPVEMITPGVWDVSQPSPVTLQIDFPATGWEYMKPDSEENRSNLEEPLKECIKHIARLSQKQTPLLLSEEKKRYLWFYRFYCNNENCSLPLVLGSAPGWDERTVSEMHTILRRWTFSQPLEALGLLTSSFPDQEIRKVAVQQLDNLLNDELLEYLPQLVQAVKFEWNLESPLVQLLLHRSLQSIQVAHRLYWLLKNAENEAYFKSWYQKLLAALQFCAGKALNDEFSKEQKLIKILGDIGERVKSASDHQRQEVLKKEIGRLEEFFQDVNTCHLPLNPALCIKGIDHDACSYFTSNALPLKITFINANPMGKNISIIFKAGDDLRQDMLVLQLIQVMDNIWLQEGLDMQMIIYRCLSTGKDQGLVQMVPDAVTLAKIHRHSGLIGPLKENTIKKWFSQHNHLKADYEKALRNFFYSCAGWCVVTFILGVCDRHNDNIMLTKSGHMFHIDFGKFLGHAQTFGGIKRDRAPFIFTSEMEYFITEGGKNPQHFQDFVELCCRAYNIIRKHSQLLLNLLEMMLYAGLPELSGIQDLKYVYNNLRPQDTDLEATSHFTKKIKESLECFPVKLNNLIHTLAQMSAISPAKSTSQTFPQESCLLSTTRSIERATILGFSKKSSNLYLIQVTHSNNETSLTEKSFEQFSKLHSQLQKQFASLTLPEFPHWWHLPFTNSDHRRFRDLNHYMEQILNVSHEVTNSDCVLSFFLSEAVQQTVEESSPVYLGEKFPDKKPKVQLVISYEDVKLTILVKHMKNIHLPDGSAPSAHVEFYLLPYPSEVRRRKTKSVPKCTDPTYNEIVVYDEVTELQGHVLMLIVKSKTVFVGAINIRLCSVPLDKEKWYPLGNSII
Procedure, shortened: (§1)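 Binding across the scanMAX kinase panel was tested at 1 uM compound. % control = (compound − positive control)/(negative control − positive control) × 100; below 35 counted as active.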

[2] = target: T2, scanMAX Kinase assay panel (Homo sapiens, UniProt P17948); settings: FLT1; 1 uM; read-out: Percent Control (%)
T2 construct: purchased DiscoverX
Procedure, shortened: as §1

[3] = target: T3, scanMAX Kinase assay panel (Homo sapiens, UniProt O75582); settings: 1 uM, read-out: Percent Control (%)
T3 construct: purchased DiscoverX
Procedure, shortened: as §1

[4] = target: T4, scanMAX Kinase assay panel (Homo sapiens, UniProt P48736); settings: PIK3CG; 1 uM; read-out: Percent Control (%)
T4 construct: purchased DiscoverX
Procedure, shortened: as §1

[5] = target: T5, scanMAX Kinase assay panel (Homo sapiens, UniProt P33981); settings: TTK; 1 uM; read-out: Percent Control (%)
T5 construct: purchased DiscoverX
T5 sequence (P33981 1-857): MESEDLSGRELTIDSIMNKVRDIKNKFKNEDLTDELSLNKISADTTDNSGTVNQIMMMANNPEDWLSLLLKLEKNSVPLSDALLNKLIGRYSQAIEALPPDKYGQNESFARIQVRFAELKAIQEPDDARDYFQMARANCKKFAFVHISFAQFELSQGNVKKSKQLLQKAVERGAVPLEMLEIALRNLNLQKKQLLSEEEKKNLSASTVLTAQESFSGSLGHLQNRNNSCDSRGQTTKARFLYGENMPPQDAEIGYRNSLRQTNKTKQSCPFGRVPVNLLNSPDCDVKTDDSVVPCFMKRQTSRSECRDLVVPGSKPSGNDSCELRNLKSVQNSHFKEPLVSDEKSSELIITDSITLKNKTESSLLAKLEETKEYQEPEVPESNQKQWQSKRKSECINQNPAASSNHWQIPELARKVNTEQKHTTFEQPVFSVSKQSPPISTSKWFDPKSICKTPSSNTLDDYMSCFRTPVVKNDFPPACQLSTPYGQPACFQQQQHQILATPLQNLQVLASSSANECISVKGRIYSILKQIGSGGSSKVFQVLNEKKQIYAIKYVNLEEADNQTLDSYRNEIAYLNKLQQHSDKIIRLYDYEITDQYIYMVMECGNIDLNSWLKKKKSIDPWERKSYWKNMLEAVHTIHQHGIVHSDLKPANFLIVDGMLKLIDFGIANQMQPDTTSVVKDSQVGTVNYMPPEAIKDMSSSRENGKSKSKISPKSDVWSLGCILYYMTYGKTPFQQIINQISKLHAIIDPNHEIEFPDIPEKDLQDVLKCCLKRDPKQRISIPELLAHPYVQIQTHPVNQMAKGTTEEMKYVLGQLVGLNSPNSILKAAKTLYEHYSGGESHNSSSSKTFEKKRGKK
Procedure, shortened: as §1

T2 sequence (P17948 27-1338): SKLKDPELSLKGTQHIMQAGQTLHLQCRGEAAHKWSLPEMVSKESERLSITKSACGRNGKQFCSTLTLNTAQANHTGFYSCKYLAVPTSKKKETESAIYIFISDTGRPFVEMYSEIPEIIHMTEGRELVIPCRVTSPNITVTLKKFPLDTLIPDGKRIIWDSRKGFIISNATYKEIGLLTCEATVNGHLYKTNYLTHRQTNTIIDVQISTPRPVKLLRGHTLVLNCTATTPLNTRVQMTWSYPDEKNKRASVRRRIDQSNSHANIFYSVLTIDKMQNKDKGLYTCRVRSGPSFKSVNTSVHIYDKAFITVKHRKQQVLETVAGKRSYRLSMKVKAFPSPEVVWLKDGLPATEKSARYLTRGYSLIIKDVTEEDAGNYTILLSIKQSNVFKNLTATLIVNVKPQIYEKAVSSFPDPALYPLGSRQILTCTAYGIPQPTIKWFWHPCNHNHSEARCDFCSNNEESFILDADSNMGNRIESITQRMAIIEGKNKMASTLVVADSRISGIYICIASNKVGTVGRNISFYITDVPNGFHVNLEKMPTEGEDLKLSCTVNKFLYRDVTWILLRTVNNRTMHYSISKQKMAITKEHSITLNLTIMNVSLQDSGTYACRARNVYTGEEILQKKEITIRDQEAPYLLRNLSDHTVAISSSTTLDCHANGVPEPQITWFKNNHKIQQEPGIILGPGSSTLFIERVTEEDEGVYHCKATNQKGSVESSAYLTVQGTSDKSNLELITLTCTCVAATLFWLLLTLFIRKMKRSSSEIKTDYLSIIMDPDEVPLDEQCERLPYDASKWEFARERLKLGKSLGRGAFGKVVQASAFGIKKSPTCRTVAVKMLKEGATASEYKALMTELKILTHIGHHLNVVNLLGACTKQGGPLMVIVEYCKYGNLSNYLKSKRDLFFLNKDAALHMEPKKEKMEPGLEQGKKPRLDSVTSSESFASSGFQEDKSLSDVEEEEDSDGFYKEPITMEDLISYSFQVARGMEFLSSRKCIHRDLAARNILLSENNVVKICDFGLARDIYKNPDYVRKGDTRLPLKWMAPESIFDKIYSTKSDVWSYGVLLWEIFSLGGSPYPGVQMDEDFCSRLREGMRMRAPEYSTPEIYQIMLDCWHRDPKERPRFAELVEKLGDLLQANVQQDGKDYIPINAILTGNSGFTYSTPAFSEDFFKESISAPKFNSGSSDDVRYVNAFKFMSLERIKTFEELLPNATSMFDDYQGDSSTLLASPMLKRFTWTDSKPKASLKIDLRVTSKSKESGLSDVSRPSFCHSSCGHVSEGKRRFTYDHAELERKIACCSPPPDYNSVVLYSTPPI
T4 sequence (P48736 whole entry): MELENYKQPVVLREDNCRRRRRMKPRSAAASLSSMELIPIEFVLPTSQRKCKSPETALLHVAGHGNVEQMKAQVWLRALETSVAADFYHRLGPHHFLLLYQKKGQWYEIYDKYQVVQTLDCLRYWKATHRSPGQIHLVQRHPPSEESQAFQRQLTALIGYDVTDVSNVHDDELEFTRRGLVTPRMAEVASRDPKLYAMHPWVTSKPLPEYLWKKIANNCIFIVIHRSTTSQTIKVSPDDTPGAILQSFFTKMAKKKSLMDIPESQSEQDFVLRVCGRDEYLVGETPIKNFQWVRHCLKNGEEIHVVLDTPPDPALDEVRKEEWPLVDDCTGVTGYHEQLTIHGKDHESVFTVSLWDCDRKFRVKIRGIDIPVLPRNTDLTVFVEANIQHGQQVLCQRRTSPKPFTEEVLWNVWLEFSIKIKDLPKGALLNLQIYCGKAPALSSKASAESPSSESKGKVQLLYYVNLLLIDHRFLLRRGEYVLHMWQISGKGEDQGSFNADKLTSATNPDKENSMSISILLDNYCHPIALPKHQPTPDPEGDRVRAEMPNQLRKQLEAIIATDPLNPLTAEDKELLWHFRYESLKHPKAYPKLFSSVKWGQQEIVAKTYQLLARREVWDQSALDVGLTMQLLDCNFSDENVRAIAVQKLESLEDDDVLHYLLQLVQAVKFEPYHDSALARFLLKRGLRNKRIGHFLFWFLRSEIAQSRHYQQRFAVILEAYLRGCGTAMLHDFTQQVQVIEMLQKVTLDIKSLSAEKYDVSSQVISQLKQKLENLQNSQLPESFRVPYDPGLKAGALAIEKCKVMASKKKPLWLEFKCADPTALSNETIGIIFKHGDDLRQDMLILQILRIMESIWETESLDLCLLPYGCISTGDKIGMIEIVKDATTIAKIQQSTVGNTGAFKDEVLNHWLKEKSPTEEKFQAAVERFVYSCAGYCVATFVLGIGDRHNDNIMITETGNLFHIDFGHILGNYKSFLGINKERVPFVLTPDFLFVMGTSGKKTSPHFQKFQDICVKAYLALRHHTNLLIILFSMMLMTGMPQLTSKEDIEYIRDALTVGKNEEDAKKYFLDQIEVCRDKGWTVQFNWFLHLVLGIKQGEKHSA
T3 sequence (O75582 whole entry): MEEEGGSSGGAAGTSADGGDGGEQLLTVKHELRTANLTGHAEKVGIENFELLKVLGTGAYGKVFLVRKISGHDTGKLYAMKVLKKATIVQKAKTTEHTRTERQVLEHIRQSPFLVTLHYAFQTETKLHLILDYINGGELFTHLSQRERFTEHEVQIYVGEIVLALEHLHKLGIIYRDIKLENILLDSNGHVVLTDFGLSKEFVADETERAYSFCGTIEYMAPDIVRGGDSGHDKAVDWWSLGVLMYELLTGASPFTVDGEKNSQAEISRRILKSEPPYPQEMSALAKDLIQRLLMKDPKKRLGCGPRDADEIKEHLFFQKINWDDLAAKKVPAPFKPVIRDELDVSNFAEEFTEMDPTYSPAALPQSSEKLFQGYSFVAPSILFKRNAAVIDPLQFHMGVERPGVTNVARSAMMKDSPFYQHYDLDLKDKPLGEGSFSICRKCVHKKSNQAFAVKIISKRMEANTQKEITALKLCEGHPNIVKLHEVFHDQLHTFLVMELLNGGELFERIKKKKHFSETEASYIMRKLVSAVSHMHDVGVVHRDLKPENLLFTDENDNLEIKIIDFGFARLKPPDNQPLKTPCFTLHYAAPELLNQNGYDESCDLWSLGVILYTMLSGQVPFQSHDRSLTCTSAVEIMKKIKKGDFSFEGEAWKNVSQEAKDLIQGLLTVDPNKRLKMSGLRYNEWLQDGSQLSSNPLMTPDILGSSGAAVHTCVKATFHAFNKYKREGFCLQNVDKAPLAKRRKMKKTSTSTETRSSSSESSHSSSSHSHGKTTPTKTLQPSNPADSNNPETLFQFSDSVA

For `Cc1ccc(C(=O)Nc2ccc(CN3CCN(C)CC3)c(C(F)(F)F)c2)cc1C#Cc1cnc2c(Nc3cnn(C)c3)cccn12` [Example 1, 4-methyl-3-((8-((1-methyl-1H-pyrazol-4-yl)amino)imidazo[1,2-a]pyridin-3-yl)ethynyl)-N-(4-((4-methylpiperazin-1-yl)methyl)-3-(trifluoromethyl)phenyl)benzamide], the remaining binding at 1 µM [1] was 75%, the remaining binding at 1 µM [2] was 3% and the remaining binding at 1 µM ([3]; RPS6KA5 (Kin.Dom.1-N-terminal)) was 38%. It also gave a remaining binding at 1 µM ([3]; RPS6KA5 (Kin.Dom.2-C-terminal)) of 69%, a remaining binding at 1 µM [4] of 100% and a remaining binding at 1 µM [5] of 12%.

`Cc1cn(-c2cc(NC(=O)c3ccc(C)c(C#Cc4cnc5c(Nc6cnn(C)c6)cccn45)c3)cc(C(F)(F)F)c2)cn1` [Example 12, 4-methyl-N-(3-(4-methyl-1H-imidazol-1-yl)-5-(trifluoromethyl)phenyl)-3-((8-((1-methyl-1H-pyrazol-4-yl)amino)imidazo[1,2-a]pyridin-3-yl)ethynyl)benzamide] showed a remaining binding at 1 µM [1] of 100%, a remaining binding at 1 µM [2] of 16% and a remaining binding at 1 µM ([3]; RPS6KA5 (Kin.Dom.1-N-terminal)) of 99%. For the same molecule, the remaining binding at 1 µM ([3]; RPS6KA5 (Kin.Dom.2-C-terminal)) was 94%, the remaining binding at 1 µM [4] was 100% and the remaining binding at 1 µM [5] was 70%.

`Cc1ccc(NC(=O)C2(C(=O)Nc3ccc(F)cc3)CC2)cc1C#Cc1cnc2c(Nc3cnn(C(C)C)c3)cccn12` [Example 78] gave a remaining binding at 1 µM [1] of 100%, a remaining binding at 1 µM [2] of 84% and a remaining binding at 1 µM ([3]; RPS6KA5 (Kin.Dom.1-N-terminal)) of 100%. The remaining binding at 1 µM ([3]; RPS6KA5 (Kin.Dom.2-C-terminal)) was 100%, the remaining binding at 1 µM [4] was 100% and the remaining binding at 1 µM [5] was 100%.
